Laboratory results from patent publication US20240277662A1, “Administration of a Compound to Individuals with Hepatic Impairment” (Arena Pharmaceuticals, Inc., priority 2021, published 2024).
Like-named read-outs stand apart in the source and are kept apart here.

What was measured:
[1] = Safety and tolerability of a single oral dose of etrasimod in the hepatic impairment study; format: in vivo, human; conditions: single oral dose 2 mg; normal hepatic function or mild, moderate, severe hepatic impairment
Text: (§1) A study evaluated the effect of hepatic impairment on the PK, safety, and tolerability of etrasimod.
An open-label, parallel-group study included 36 patients (aged 18-80 years; body mass index ≥18) with hepatic impairment, based on Child-Pugh score at screening (mild=5-6 [n=8], moderate=7-9 [n=8], severe=10-14 [n=6]), and demographically matched control patients with normal hepatic function (n=14 total). The first patient with severe hepatic impairment was enrolled after ≥2 patients with mild hepatic impairment and ≥2 patients with moderate hepatic impairment had been enrolled and followed for ≥48 hours after dosing to ensure no significant safety signals were observed. […] Safety was assessed by adverse event monitoring, vital signs, physical and neurological examination, 12-lead electrocardiogram (ECG), and clinical laboratory evaluations. Plasma concentrations of etrasimod were determined via liquid chromatography-tandem mass spectrometry (LC-MS/MS) from matrix-matched calibration curves between 0.25 to 100.0 ng/ml and 0.1 to 120.4 ng/mL for total etrasimod (bound and unbound) and unbound etrasimod, respectively. Analyte LC-MS/MS quantitation reagents included an ACE C18 column, a 20-mM ammonium acetate/acetonitrile mobile phase, a Shimadzu LC pump and autosampler, and a Sciex API6500+MS with an electrospray probe in negative multiple reaction monitoring. […]

[2] = Open-label, parallel-group single-dose PK study of etrasimod in patients with hepatic impairment and matched controls; format: in vivo, human; conditions: single oral dose 2 mg; for half-life: po, 2 mg, read-out: t1/2, mean (converted)
Text: as §1
An open-label, parallel-group study included 36 patients (aged 18-80 years; body mass index ≥18) with hepatic impairment, based on Child-Pugh score at screening (mild=5-6 [n=8], moderate=7-9 [n=8], severe=10-14 [n=6]), and demographically matched control patients with normal hepatic function (n=14 total). The first patient with severe hepatic impairment was enrolled after ≥2 patients with mild hepatic impairment and ≥2 patients with moderate hepatic impairment had been enrolled and followed for ≥48 hours after dosing to ensure no significant safety signals were observed. On Day 1, patients received a single oral dose of etrasimod 2 mg after ≥10-hour fast. PK and safety data were collected over 21 days. Safety was assessed by adverse event monitoring, vital signs, physical and neurological examination, 12-lead electrocardiogram (ECG), and clinical laboratory evaluations. Plasma concentrations of etrasimod were determined via liquid chromatography-tandem mass spectrometry (LC-MS/MS) from matrix-matched calibration curves between 0.25 to 100.0 ng/ml and 0.1 to 120.4 ng/mL for total etrasimod (bound and unbound) and unbound etrasimod, respectively. Analyte LC-MS/MS quantitation reagents included an ACE C18 column, a 20-mM ammonium acetate/acetonitrile mobile phase, a Shimadzu LC pump and autosampler, and a Sciex API6500+MS with an electrospray probe in negative multiple reaction monitoring. Plasma protein-free supernatant was collected via ultracentrifugation at 223,000 g for 4 hours. Unbound etrasimod concentrations were only measured four hours post dose and results assumed to apply to other PK collection times. For protein precipitation, acetonitrile was applied to a 1:1 mixed matrix of plasma: supernatant. The positive control was warfarin. Plasma concentrations and PK parameters were summarized by hepatic function using descriptive statistics. Unbound etrasimod PK parameters were based on total etrasimod PK parameters adjusted by percent unbound. Mean plasma concentration-time profiles were presented graphically. Phoenix WinNonlin (CertaraUSA, Inc.) was used for PK analysis.

[3] = tested on: ulcerative colitis; conditions: UC patients, cited from earlier work
[4] = approximately 281 adult subjects treated at various doses; cited from earlier work

half-life ([2]; human, plasma, demographically matched normal control groups): 43.9 to 59.5 h
half-life ([2]; human, plasma, mild hepatic impairment group): 55.7 h
half-life ([2]; human, plasma, moderate hepatic impairment group): 69.7 h
half-life ([2]; human, plasma, severe hepatic impairment group): 76.5 h
Tmax ([2]; human, fasted, across all groups, plasma, read-out: median tmax): 4 to 8 h
unbound etrasimod AUC vs demographically matched normal control groups ([2]; all hepatic impairment groups): typically comparable
mean plasma concentration-time profiles ([2]; moderate and severe hepatic impairment groups): slightly higher
mean plasma concentration-time profiles ([2]; normal hepatic function vs mild hepatic impairment groups): overlapped
changes in etrasimod exposure ([2]; patients with mild, moderate or severe hepatic impairment): relatively modest changes
unbound etrasimod Cmax, lower vs demographically matched normal control groups ([2]; progressively lower in mild, moderate and severe hepatic impairment groups): up to 42.0%
peak exposure (Cmax) vs demographically matched normal control groups ([2]; total etrasimod, all hepatic impairment groups): comparable
SMILES: O=C(O)C[C@H]1CCc2c1[nH]c1ccc(OCc3ccc(C4CCCC4)c(C(F)(F)F)c3)cc21 [Compound 1, (R)-2-(7-(4-cyclopentyl-3-(trifluoromethyl)benzyloxy)-1,2,3,4-tetrahydrocyclopenta[b]indol-3-yl)acetic acid]
safety findings [1]: no clinically significant safety findings
tolerability [1]: well tolerated
endoscopic and symptomatic improvements versus placebo ([3]; 2 mg QD for 12 weeks): clinically meaningful and statistically significant endoscopic and symptomatic improvements
beneficial effects in open-label extension study ([3]; up to 46 weeks): Sustained beneficial effects
safety and tolerability [4]: safe and well-tolerated
